Laboratory results as given in patent US5965582A, “N-benzylindole and benzopyrazole derivatives with anti-asthmatic, anti-allergic, anti-inflammatory and immunemodulating effect” (ASTA Medica Aktiengesellschaft, priority 1994, dated 1999).
Where a name gives a salt, the structure may show the parent alone.

Experiments:
[1] = system: eosinophilia in the lavage; assay: Late phase eosinophilia model in sensitised guinea pigs (bronchoalveolar lavage); type: in vivo, guinea pigs (Pirbright White)
Procedure: The in vitro investigations with D-22557 and D-22558 were continued in vivo (late phase eosinophilia model) in sensitised guinea pigs
Male guinea pigs (Pirbright White, 200-250 g. Charles River Wiga, Sulfeld) were actively sensitised using a s.c. injection cf ovalbumin (10μg+100 mg aluminium hydroxide) and boosted 2 weeks later. One week after the booster injection the animals were exposed for 30 seconds to an aerosol made from 0.5% ovalbumin solution. 24 hours later brochoalveolar lavage (BAL) was carried out with 2×5 ml physiol. salt solution in animals sacrificed using an overdose of pentobarbital sodium and desanguinated. The lavage fluid was pooled, centrifuged for 10 minutes at 400×g and the cell pellet resuspended in 1 ml physiological salt solution. The eosinophiles were counted in a Neubauer chamber after staining by using a Becton Dickinson eosinophile test kit. Percentage Inhibition of the eosinophilia in the lavage was calculated in percent by comparing the eosinophile count of the groups treated with substance with the eosinolphile count of normal (unchallenged) and challenged control groups not treated with the substance. Each group numbered 10 animals. Test substances were either given prophylactically 2 hours before allergen challenge (-2 h) or therapeutically 4 hours after challenge (+4 h). When the therapeutic application was investigated, the animals (all groups) received azelastin (10 μg/kg po) 2 hours before allergen challenge to avoid deaths arising due to the onset of early phase bronchoconstriction.

[2] = system: IL-4 release from murine T-helper cells (D10.G4); assay: Inhibition of anti-CD3-induced release of interleucin (IL)-4 in vitro (CIL4TC); type: cell-based; conditions: anti-CD3-induced IL-4 release; for IC50: 16 hours; for CIL4TC % inhibition: with 10 000 nmol/l
Procedure: (§1) Inhibition of anti-CD3-induced release of interleucin (IL)-4 (CIL4TC) and IL-5-release (CIL5TC) in vitro
(§2) Murine T-helper cells (D10.G4) were used as IL-4/IL-5-producing cells. These cells were pre-incubated with the test substances for 30 minutes at 37° C. The cells were then stimulated at 37° C. to produce interleucins by adding a monoclonal antibody against the T-cell receptor domain CD3 (anti-CD3). After 16 hours, the cells were centrifuged off and the released interleucins were quantified in the cell supernatant with ELISAs for murine IL-4 and IL-5.

[3] = system: IL-5 release from murine T-helper cells (D10.G4); assay: Inhibition of anti-CD3-induced IL-5-release in vitro (CIL5TC); type: cell-based; conditions: 16 hours
Procedure: as §1, §2

[4] = system: allergically-induced histamine release from mast cells of the peritoneal and pleura cavities; assay: Inhibition of allergically-induced histamine release in-vitro (CHIR); type: cell-based, Sprague-Dawley rats; conditions: for IC50: allergically-induced histamine release, rat mast cells, in vitro; for CHIR % inhibition: with 10 [μmol/l] (footnote: concentration unit 10,000 nmol/l)
Procedure: Inhibition of allergically-induced histamine release in-vitro (CHIR)
Meth. […] Sprague-Dawley rats were sensitised against egg albumin (EA) by subcutaneous injection of 30 mg EA with killed Bordetella pertussis bacteria as adjuvant. Four weeks later, the mast cells of the peritoneal and pleura cavities were isolated from these animals. The cells were washed, resuspended in tris gel CM (the composition of tris gel CM buffer is as follows:
the rest is water, the pH value of the solution is 7.6) buffer and pre-incubated with the test substances for 15 minutes at 37° C. The cells were then stimulated at 37° C. by adding the antigen EA to release histamine.

[5] = 5 mg/kg ip, -2 h (before allergen challenge)

In the case of `Fc1ccc(Cn2cc(CCNc3cccnc3)c3ccccc32)cc1.O=C(O)/C=C\C(=O)O` [D-22557, N-(pyridine-3-yl)-2-[1-(4-fluorobenzyl)indole-3-yl]ethylamine maleate], the “% Inhibition of the eosinophilia in the lavage” value (shortened to “% Inhibition of the eosinophilia”) ([1]; 0.5 mg/kg ip, -2 h (before allergen challenge)) is reported as 59%, the “% Inhibition of the eosinophilia” value ([1]; 1 mg/kg ip, -2 h (before allergen challenge)) is reported as 42% and the “% Inhibition of the eosinophilia” value [1, 5] is reported as 50%.
For `O=C(Cc1cn(Cc2ccc(F)cc2)c2ccccc12)Nc1ccncc1` [D-22558, N-(4-pyridyl)-[1-(4-fluorobenzyl)indole-3-yl]acetamide], the “% Inhibition of the eosinophilia” value [1, 5] was 41%, the “% Inhibition of the eosinophilia” value ([1]; 10 mg/kg ip, +4 h (after challenge), animals received azelastin 10 μg/kg po 2 hours before challenge) was 59% and the “% Inhibition of the eosinophilia” value ([1]; 10 mg/kg po, -2 h (before allergen challenge)) was 23%. For the same compound, the “% Inhibition of the eosinophilia” value ([1]; 30 mg/kg po, -2 h (before allergen challenge)) was 35%, the IC50 ([2]; Mus musculus) was 7.97 µM and the IC50 ([3]; Mus musculus) was 1.52 µM. It also gave an IC50 ([4]; Mast cell) of 16 nM.
`CCOC(=O)Nc1ccc(N2CCc3c([nH]c4ccccc34)C2)nc1N` [D-22559, N-(6-amino-5-ethoxycarbonylamino-(-2-pyridyl))-1,2,3,4-tetrahydro-β-carboline] showed a CIL4TC % inhibition [2] of 51%, an IC50 ([3]; Mus musculus) of 6.6 µM and an IC50 ([4]; Mast cell) of 3400 nM.
With `Fc1ccc(Cn2cc(CCNc3ccncc3)c3ccccc32)cc1` [D-22561, N-(4-pyridyl-yl)-2-[1-(4-fluorobenzyl)indole-3-yl]ethylamine maleate] the IC50 ([2]; Mus musculus) was 5.68 µM, the IC50 ([3]; Mus musculus) was 3.21 µM and the CHIR % inhibition [4] was 15%.
For `c1ccc(Cn2cc(CCNc3ccncc3)c3ccccc32)cc1` [D-22685, N-(4-pyridyl-yl)-2-(1-benzylindole-3-yl)ethylamine maleate], the IC50 ([2]; Mus musculus) was 8.58 µM, the IC50 ([3]; Mus musculus) was 6.89 µM and the CHIR % inhibition [4] was 33%.
`Fc1ccc(Cn2cc(CCCNc3cccnc3)c3ccccc32)cc1` [D-22686, N-(3-pyridyl-yl)-3-3[1-(4-fluorobenzyl)indole-3-yl]propylamine] gave a CIL4TC % inhibition [2] of 41%, an IC50 ([3]; Mus musculus) of 7.31 µM and an IC50 ([4]; Mast cell) of 200 nM.
`CCn1cc(CC(=O)Nc2ccncc2)c2ccccc21` [D-22693, N-(4-pyridyl-yl)-2-(1-ethylindole-3-yl)acetamide] showed a CIL4TC % inhibition [2] of 48%, an IC50 ([3]; Mus musculus) of 2.7 µM and an IC50 ([4]; Mast cell) of 400 nM.
`Cn1cc(CCCNc2ccncc2)c2ccccc21` [D-22697, N-(4-pyridyl-yl)-3-(1-methylindole-3-yl)propylamine] was tested, and the IC50 ([2]; Mus musculus) was 7.29 µM and the IC50 ([3]; Mus musculus) was 2.88 µM.
Work on `Fc1ccc(Cn2cc(CCCNc3ccncc3)c3ccccc32)cc1` [D-22698, N-(4-pyridyl-yl)-3-[1-(4-fluorobenzyl)indole-3-yl]propylamine] yielded a CIL4TC % inhibition [2] of 38% and an IC50 ([3]; Mus musculus) of 7.77 µM.
With `CCOC(=O)Nc1ccc(OC)nc1NCCc1cn(Cc2ccccc2)c2ccccc12` [D-22992, N-(3-ethoxycarbonylamino-6-methoxy-(2-pyridyl))-2-(1-benzylindole-3-yl)ethylamine] the IC50 ([2]; Mus musculus) was 9.73 µM, the IC50 ([3]; Mus musculus) was 6.24 µM and the IC50 ([4]; Mast cell) was 680 nM.
With `CCOC(=O)Nc1ccc(OC)nc1NCCCc1cn(Cc2ccc(F)cc2)c2ccccc12` [D-22993] the IC50 [2] was 8.97 µM, the IC50 [3] was 6.94 µM and the IC50 [4] was 540 nM.
